Experimental data: patent US20240175039A1, “ENGINEERING PROBIOTIC FOR DEGRADING URIC ACID, AND CONSTRUCTION METHOD THEREFOR AND USE THEREOF” (SHANDONG UNIVERSITY, priority 2022, published 2024)

Columns and labels:
[1] = system: Bacillus subtilis PucLM (complete PucL co-expressed with PucM, wild type; PucM SEQ ID NO: 2); test: UA degradation kinetics (Km, Vmax), cell extract of EcN::pMCS2-Ptrc-pucLM; assay type: biochemical
Source text: (§1) The pucL (Gene ID: 936669) and pucM (Gene ID: 937977) genes from Bacillus subtilis were codon-optimized and synthesized by Beijing Genomics Institute (BGI, Beijing). Asp-214 and Gln-438 of PucL were mutated to Val and Arg, respectively. The mutated pucL was named as pucL^M, and pucL^M was codon-optimized and synthesized by Beijing Genomics Institute (BGI, Beijing). The vhb gene (Protein ID: WP_019959060.1) from Vitreoscilla sp. C1 was codon-optimized and synthesized by Beijing Genomics Institute (BGI, Beijing). The ygfU (Gene ID: 949017) and the katG (Gene ID: 948431) genes were PCR amplified from E. coli MG1655 genomic DNA.
(§2) (1) UA was measured in a buffer solution using a spectrophotometer by directly measuring the absorbance at 293 nm. Firstly, UA standard solutions of 0, 10 μM, 15 μM, 20 μM, 30 μM, 40 μM, 50 μM, 60 μM, and 70 μM were prepared to plot an UA concentration standard curve, obtaining a curve R2 of 0.9997. Subsequently, appropriate dilutions were performed for measurement, and UA concentration was determined.
The activity of PucL^T can be enhanced by the D44V and Q268R mutations. We directly mutated two sites in the complete PucL (PucLM) and co-expressed them with PucM in EcN (EcN::pMCS2-Ptrc-pucL^MM). Determined by using cell extracts, the Vmax of PucL^MM increased by approximately 1.8 times compared to PucLM. […] Due to the increase in Km, the UA degradation ability of the whole cell of EcN::pMCS2-Ptrc-pucL^MM was weakened when the concentration of UA was low (FIG. 2C).

[2] = molecular target: T1, Bacillus subtilis PucL^MM (PucL variant PucL^M, Asp-214 to Val and Gln-438 to Arg (D44V and Q268R in PucL^T), SEQ ID NO: 1, co-expressed with PucM, SEQ ID NO: 2 (Bacillus subtilis, UniProt O32141, D214V/Q438R)); test: UA degradation kinetics (Km, Vmax), cell extract of EcN::pMCS2-Ptrc-pucL^MM; assay type: biochemical; conditions: cell extracts
T1 sequence (O32141 1-494 D214V/Q438R): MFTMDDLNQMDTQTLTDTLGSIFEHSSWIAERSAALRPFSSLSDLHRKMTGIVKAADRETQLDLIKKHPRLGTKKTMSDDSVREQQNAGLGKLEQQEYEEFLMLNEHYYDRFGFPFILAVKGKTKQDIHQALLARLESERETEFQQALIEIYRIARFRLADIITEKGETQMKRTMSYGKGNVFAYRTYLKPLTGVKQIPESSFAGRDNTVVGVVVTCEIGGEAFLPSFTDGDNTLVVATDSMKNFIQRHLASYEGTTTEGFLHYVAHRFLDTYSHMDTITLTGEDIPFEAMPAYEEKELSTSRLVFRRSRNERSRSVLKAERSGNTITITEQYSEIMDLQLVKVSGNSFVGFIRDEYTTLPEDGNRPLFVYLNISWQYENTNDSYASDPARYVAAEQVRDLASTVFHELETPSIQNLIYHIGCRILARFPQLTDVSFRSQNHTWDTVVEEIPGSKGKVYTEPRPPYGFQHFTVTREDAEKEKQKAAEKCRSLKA
T1 sequence (O32142 1-114 partner): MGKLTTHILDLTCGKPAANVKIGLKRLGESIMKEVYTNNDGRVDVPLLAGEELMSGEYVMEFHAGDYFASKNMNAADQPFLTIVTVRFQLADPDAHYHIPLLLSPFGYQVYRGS
Source text: (§3) The urate oxidase gene is specifically PucL^M and PucM, whose nucleotide sequences are shown as SEQ ID NO: 1 and SEQ ID NO: 2, respectively; they act together, and in the present invention, they are named PucL^MM.
as §1
(§4) (1) UA was measured in a buffer solution using a spectrophotometer by directly measuring the absorbance at 293 nm. […] Subsequently, appropriate dilutions were performed for measurement, and UA concentration was determined.
(§5) The activity of PucL^T can be enhanced by the D44V and Q268R mutations. […] Determined by using cell extracts, the Vmax of PucL^MM increased by approximately 1.8 times compared to PucLM. […]

[3] = substrate: O=c1[nH]c(=O)c2[nH]c(=O)[nH]c2[nH]1; test: as above; assay type: biochemical, Bacillus subtilis; conditions: other: cell extract, recombinant EcN::pMCS2-Ptrc-pucL^MM
Source text: as §3, §1, §4, §5

[4] = substrate: O=c1[nH]c(=O)c2[nH]c(=O)[nH]c2[nH]1; test: UA degradation kinetics (Km, Vmax), cell extract of EcN::pMCS2-Ptrc-pucL^T; assay type: biochemical, Bacillus subtilis; conditions: other: cell extract, recombinant EcN::pMCS2-Ptrc-pucL^T
Source text: as §1, §2
The UriC domain of PucL (PucL^T) catalyzes step 1 in the UA degradation (FIG. 1), and steps 2 and 3 can occur spontaneously. […]
as §5

[5] = cell extract, recombinant EcN::pMCS2-Ptrc-pucLM

O=c1[nH]c(=O)c2[nH]c(=O)[nH]c2[nH]1 [UA, uric acid]
Km [1, 5]: 17.2 µM
Vmax [1, 5]: 13.88 µM/mg/min
Km of PucLM compared with PucL^T ([1]; cell extracts): significantly reduced
Vmax of PucLM compared with PucL^T ([1]; cell extracts): similar
Km increase of PucL^MM compared to PucLM [2]: approximately 2.0 times
Vmax increase of PucL^MM compared to PucLM [2]: approximately 1.8 times

B1: Bacillus subtilis PucL^MM (PucL variant PucL^M, Asp-214 to Val and Gln-438 to Arg (D44V and Q268R in PucL^T), SEQ ID NO: 1, co-expressed with PucM, SEQ ID NO: … (protein)
chain: T1 sequence (O32141 1-494 D214V/Q438R)
Km [3]: 52.54 µM
Vmax [3]: 38.6 µM/min/mg

B2: Bacillus subtilis PucL^T (UriC domain of PucL, urate oxidase) (Bacillus subtilis subsp. subtilis str. 168) (protein)
chain: MKRTMSYGKGNVFAYRTYLKPLTGVKQIPESSFAGRDNTVVGVDVTCEIGGEAFLPSFTDGDNTLVVATDSMKNFIQRHLASYEGTTTEGFLHYVAHRFLDTYSHMDTITLTGEDIPFEAMPAYEEKELSTSRLVFRRSRNERSRSVLKAERSGNTITITEQYSEIMDLQLVKVSGNSFVGFIRDEYTTLPEDGNRPLFVYLNISWQYENTNDSYASDPARYVAAEQVRDLASTVFHELETPSIQNLIYHIGCRILARFPQLTDVSFQSQNHTWDTVVEEIPGSKGKVYTEPRPPYGFQHFTVTREDAEKEKQKAAEKCRSLKA
Km [4]: 61.03 µM
Vmax [4]: 12.3 µM/min/mg
